In US11098040B2, “Compounds and methods of use” (Ferro Therapeutics, Inc., priority 2018, dated 2021):
Where two headings read alike, the source gives them in different places.

Tests used:
[1] = tested on: A549; experiment: Cell viability assay, A549 cells; type: cell-based
Method: Example 5: Inducer Compound Effect on Growth of A549 and KP4 Cells
Cell viability assay was performed to assess the potency of the compounds in cancer cell line KP4 (pancreatic ductal adenocarcinoma). Cells at a density of 1,000-10,000 cells/well were seeded in 96-well plates and incubated at 37° C. overnight. A series of 9 different concentrations of compound stocks (500×) were created by 3-fold serial dilution in DMSO. These compounds were further diluted in culture media and then added to cells so that the final DMSO concentration was equal to 0.25% or less. After 96 hours of incubation, 50 μL of CellTiter Glo reagent (Promega) was added to each well and luminescence was measured after 10 minutes using EnVision (PerkinElmer). All compounds were tested initially from 30 μM as the top concentration in duplicates (range of 4.6 nM-30 μM). […] Luminescence from cells treated with DMSO alone was set as Max and % of inhibition was calculated as follows: Inhibition %=(Max-Sample value)/Max*100. Data was analyzed using XL-fit software (ID Business Solutions Ltd.). IC50, relative IC50, or % of top inhibition was calculated. […]

[2] = Whole blood stability, mouse; type: in vitro ADME
Excerpt: (§1) The results of the assay on stability in blood and IC50 values for pancreatic cancer cell line KP4 are given below in Table 24.

[3] = Whole blood stability, human; type: in vitro ADME
Excerpt: as §1

[4] = tested on: KP4; experiment: Cell viability assay (CellTiter Glo), pancreatic ductal adenocarcinoma KP4; type: cell-based, human; settings: Homo sapiens
Procedure, shortened: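 Luminescent ATP readout (CellTiter Glo) after 96 h compound exposure, normalized to DMSO-treated cells as maximum. Compounds ran in duplicate, nine 3-fold steps from 30 μM down to 4.6 nM, final DMSO ≤0.25%; KP4 plated overnight at 1,000–10,000 cells/well. Outputs: IC50, relative IC50 or % top inhibition.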

[5] = tested on: SJSA-1; experiment: Cell proliferation (Alamar Blue) assay, SJSA-1 osteosarcoma, with/without ferrostatin; type: cell-based, human; settings: read-out: IC50
Method: (§2) Cell viability assay was performed to assess the potency of the compounds in human cancer cell lines 786-O (renal cell carcinoma) and SJSA-1 (osteosarcoma). Additional cell lines, such as those described above in Example 4 as well as various others, e.g., pancreatic cancer cell lines (Panc 02.13, BxPC-3, Panc 12, Panc 02.03, Panc 6.03, PSN-1, HPAC, and Capan-1) and prostate cancer cell lines (PC-3, DU145, 22Rv1, NCI-H660, BPH1, LNCaP, BM-1604, and MDA PCa 2b), were tested for select compounds as shown in Table 25.
(§3) Cells (SJSA-1, 786-O and A431) were seeded (5000 cells/100 μL/well) in 96-well tissue culture plate and incubated at 37° C./5% CO2 for 16-24 hours. The cells were then treated with compounds (25 μL of 5×). The compound concentrations were 10-0.0005 μM prepared in 3-fold serial dilutions with final DMSO concentration of 1%. The plates were then incubated for 24 h at 37° C./5% CO2 in a moist environment. Then Alamar Blue™ reagent (final concentration 1×-12.5 μL) was added to each well and incubated for 1.5 hours at 37° C./5% CO2. The plates were read on fluorescence reader at 540 nm excitation and 590 nm emission wavelengths. The IC50 values were subsequently determined using a sigmoidal dose-response curve (variable slope) in GraphPad Prism® 5 software.
(§4) Studies have shown that lipophilic antioxidants, such as ferrostatin, can rescue cells from GPX4 inhibition-induced ferroptosis. For instance, mesenchymal state GPX4-knockout cells can survive in the presence of ferrostatin, however, when the supply of ferrostatin is terminated, these cells undergo ferroptosis (see, e.g., Viswanathan et al., Nature 547:453-7, 2017). […] Accordingly, the ability of a molecule to induce ferroptotic cancer cell death, and that such ability is admonished by the addition of ferrostatin, is clear indication that the molecule is an GPX4 inhibitor.

[6] = tested on: 786-O; experiment: Cell proliferation (Alamar Blue) assay, 786-O renal cell carcinoma, with/without ferrostatin; type: cell-based; settings: Homo sapiens, 786-0, Cell Line 786-O; read-out: IC50
Method: as §2, §3, §4

[7] = Homo sapiens, A549, Cell Line A549, read-out: IC50
[8] = KP-4, 96 h, pancreatic cancer cell line KP4, 96 hours, CellTiter Glo, read-out: IC50 μM KP4
[9] = Homo sapiens, SJSA-1, Cell Line SJSA-1
[10] = KP-4, Cell Line KP4, read-out: IC50

Structure (SMILES)	IC50 [1, 7]	IC50 [5, 9]	IC50 [6]	further results
CC[C@H]1Cc2c([nH]c3ccccc23)[C@H](c2ccc(N3CCOCC3)cc2)N1C(=O)CCl [Compound 117]	4.71 µM	–	–	Whole Blood Stability % Remaining at 37° C. Mouse ([2]; 0 min): 100.0%; Whole Blood Stability % Remaining at 37° C. Mouse ([2]; 30 min): 92.3%; Whole Blood Stability % Remaining at 37° C. Mouse ([2]; 60 min): 45.8%; Whole Blood Stability % Remaining at 37° C. Human ([3]; 0 min): 100.0%; Whole Blood Stability % Remaining at 37° C. Human ([3]; 30 min): 80.5%; Whole Blood Stability % Remaining at 37° C. Human ([3]; 60 min): 70.3%; IC50 [4, 8]: < 0.01 µM
C#CC(=O)N1[C@@H](CCCC)Cc2c([nH]c3c(F)cc(CO)cc23)[C@@H]1c1ccc(F)cc1 [Compound 134]	> 30 µM	146 nM	8190 nM	–
C#CC(=O)N1[C@@H](CCCC)Cc2c([nH]c3ccccc23)[C@@H]1C12CC(F)(C1)C2 [Compound 154]	7.95 µM	108 nM	116 nM	–
C#CC(=O)N1[C@@H](CCCC)Cc2c([nH]c3ccc(OC)cc23)[C@@H]1c1ccc(F)cc1 [Compound 155]	8.52 µM	81 nM	113 nM	–
C#CC(=O)N1[C@@H](CCCCCC)Cc2c([nH]c3ccccc23)[C@@H]1c1ccc(F)cc1 [Compound 176]	4.1 µM	206 nM	–	IC50 ([1]; Cell Line A549, read-out: IC50): 4.18 µM; IC50 ([5]; Cell Line SJSA-1): 250 nM
C#CC(=O)N1[C@@H](c2ccc(F)cc2)c2[nH]c3ccccc3c2C[C@@H]1C1CCCC1 [Compound 177]	3.22 µM	67.7 nM	78.8 nM	–
C=CC(=O)N1[C@@H](CCCC)Cc2c([nH]c3ccccc23)[C@@H]1c1ccc(F)cc1 [Compound 179]	27.4 µM	> 30000 nM	> 30000 nM	–
CC#CC(=O)N1[C@@H](CCCC)Cc2c([nH]c3ccccc23)[C@@H]1c1ccc(F)cc1 [Compound 180]	28.4 µM	> 30000 nM	> 30000 nM	–
C#CC(=O)N1[C@@H](C)Cc2c([nH]c3ccccc23)[C@@H]1C12CC(F)(C1)C2 [Compound 182]	> 30 µM	667 nM	962 nM	–
C=C(C(=O)N1[C@@H](CCCC)Cc2c([nH]c3ccccc23)[C@@H]1c1ccc(F)cc1)C(F)(F)F [Compound 184]	> 30 µM	16200 nM	12300 nM	–
C=C(F)C(=O)N1[C@@H](CCCC)Cc2c([nH]c3ccccc23)[C@@H]1c1ccc(F)cc1 [Compound 186]	> 30 µM	> 30000 nM	> 30000 nM	–
C#CC(=O)N1[C@@H](c2ccc(F)cc2)c2[nH]c3ccccc3c2C[C@@H]1C#N [Compound 190]	3.05 µM	908 nM	1200 nM	–
C#CC(=O)N1[C@@H](c2ccc(C3CCOCC3)cc2)c2[nH]c3ccccc3c2C[C@@H]1C [Compound 192]	14.2 µM	120 nM	194 nM	–
C#CC(=O)N1[C@@H](c2ccc(OC)cc2)c2[nH]c3ccccc3c2C[C@@H]1C [Compound 193]	13.3 µM	175 nM	223 nM	–
C#CC(=O)N1[C@@H](c2ccc(C#N)cc2)c2[nH]c3ccccc3c2C[C@@H]1C [Compound 194]	14.3 µM	265 nM	286 nM	–
C#CC(=O)N1[C@@H](c2ccc(Br)cc2)c2[nH]c3ccccc3c2C[C@@H]1C [Compound 195]	16.4 µM	256 nM	394 nM	–
C#CC(=O)N1[C@@H](c2ccc(Cl)cc2)c2[nH]c3ccccc3c2C[C@@H]1C [Compound 196]	20.6 µM	133 nM	267 nM	–
C#CC(=O)N1[C@@H](c2c(F)cc(F)cc2F)c2[nH]c3ccccc3c2C[C@@H]1C [Compound 197]	5.64 µM	10.2 nM	133 nM	–
C#CC(=O)N1[C@@H](c2cc(F)cc(F)c2)c2[nH]c3ccccc3c2C[C@@H]1C [Compound 198]	11.2 µM	90 nM	181 nM	–
C#CC(=O)N1[C@@H](c2ccc(F)c(F)c2)c2[nH]c3ccccc3c2C[C@@H]1C [Compound 199]	19.5 µM	338 nM	529 nM	–
C#CC(=O)N1[C@@H](c2ccc(F)cc2F)c2[nH]c3ccccc3c2C[C@@H]1C [Compound 200]	10.9 µM	448 nM	701 nM	–
C[C@H]1Cc2c([nH]c3ccc(Cl)cc23)[C@H](c2ccc(N3CCOCC3)cc2)N1C(=O)CCl [Example 120]	–	–	–	IC50 ([1]; Homo sapiens, A549, A549, read-out: IC50 for A549): 0.81 µM; IC50 [4, 10]: 0.362 µM

Further lines, with some results ahead:

IC50 [1, 7]	IC50 [5, 9]	IC50 [6]	Structure (SMILES)	further results
14.8 µM	190 nM	642 nM	C#CC(=O)N1[C@@H](c2c(F)cccc2F)c2[nH]c3ccccc3c2C[C@@H]1C [Compound 201]	–
4.41 µM	32.4 nM	61.9 nM	C#CC(=O)N1[C@@H](CCCC)Cc2c([nH]c3ccccc23)[C@@H]1c1ccc(F)cc1 [Compound 205]	–
21.8 µM	468 nM	1100 nM	C#CC(=O)N1[C@@H](c2ccc(F)cc2)c2[nH]c3ccccc3c2C[C@@H]1C [Compound 206]	–
13.3 µM	86.8 nM	214 nM	C#CCOc1ccc2[nH]c3c(c2c1)C[C@H](C)N(C(=O)CCl)[C@H]3c1ccc(NC23CC4CC(CC(C4)C2)C3)cc1 [Compound 207]	–
22.2 µM	163 nM	337 nM	C#CC(=O)N1[C@@H](CCCC)Cc2c([nH]c3ccccc23)[C@@H]1c1ccc(N2CCOCC2)cc1 [Compound 216]	–
2.81 µM	93.5 nM	137 nM	C[C@H]1Cc2c([nH]c3ccccc23)[C@H](c2ccc(F)cc2)N1C(=O)CCl [Compound 221]	–
3.35 µM	115 nM	170 nM	C[C@H]1Cc2c([nH]c3ccccc23)[C@H](c2ccc(S(F)(F)(F)(F)F)cc2)N1C(=O)CCl [Compound 222]	–
> 30 µM	–	> 10000 nM	CC(C)=CC(=O)N1[C@@H](c2ccc(N3CCOCC3)cc2)c2[nH]c3ccccc3c2C[C@@H]1C [Compound 225]	–
8.62 µM	1160 nM	1260 nM	C[C@H]1Cc2c([nH]c3ccccc23)[C@H](C23CC(F)(C2)C3)N1C(=O)CCl [Compound 226]	–
25.4 µM	–	–	COC(=O)[C@H]1Cc2c([nH]c3ccccc23)[C@H](c2ccc(O)cc2)N1C(=O)CCl [Compound 265]	Whole Blood Stability % Remaining at 37° C. Mouse ([2]; 0 min): 100.0%; Whole Blood Stability % Remaining at 37° C. Mouse ([2]; 30 min): 75.5%; Whole Blood Stability % Remaining at 37° C. Mouse ([2]; 60 min): 61.6%; Whole Blood Stability % Remaining at 37° C. Human ([3]; 0 min): 100.0%; Whole Blood Stability % Remaining at 37° C. Human ([3]; 30 min): 61.6%; Whole Blood Stability % Remaining at 37° C. Human ([3]; 60 min): 45.2%; IC50 [4, 8]: 0.1 to 0.5 µM
6.45 µM	–	–	CC#CC(=O)N1[C@@H](c2ccc(C(=O)OC)cc2)c2[nH]c3ccccc3c2C[C@@H]1C(=O)OC [Compound 272]	IC50 [4, 10]: 3.99 µM
11.8 µM	–	–	C=CC(=O)N1[C@@H](c2ccc(C(=O)OC)cc2)c2[nH]c3ccccc3c2C[C@@H]1C(=O)OC [Compound 274]	IC50 [4, 10]: 4.54 µM
4.11 µM	4200 nM	–	COCCOCCOCCOCCOC(=O)[C@H]1Cc2c([nH]c3ccccc23)[C@H](c2ccc(NC34CC5CC(CC(C5)C3)C4)cc2)N1C(=O)CCl [Example 189]	–
